Laboratory results as given in US6110122A, “Breath test for assessing hepatic function” (priority 1999, dated 2000).
“And” between values parts separate entries of the source, which are not always exact repeats. Identical values can stand only once.

Assays:
mitochondrial function = conditions: therapeutic doses of ASA; cited from earlier work
[1] = test system: hepatic mitochondrial function; experiment: Effect of alcohol and ASA ingestion on the MBT in healthy controls; format: in vivo, human; conditions: for effect of ingestion on MBT (in words): healthy controls
Method: […] The protocol was then identical to that described previously in Example 1.
The protocol for breath collection was followed as described previously.
The maximum percent dose oxidized per minute was calculated for each substrate following the procedure outlined above in Example 1.

hepatic mitochondria = conditions: in vivo; cited from earlier work
[2] = cited from earlier work
cytosolic function = conditions: patients with alcoholic disease; cited from earlier work
[3] = cited from earlier work; remark: listed apart in the source
[4] = test system: hepatic mitochondrial function; conditions: in vivo
[5] = test system: hepatic mitochondrial function; experiment: MBT in patients with liver disease, reproducibility and correlation with Child-Pugh score

SMILES: CC(=O)Oc1ccccc1C(=O)O [ASA, acetylsalicylic acid]
- change detected by ^13 C-KICA test (in words) (mitochondrial function): mitochondrial changes
- mean change of MBT from baseline with ASA ([1]; ASA, n=11, p<0.001): 36±36%
- effect of ingestion on MBT (in words) [1]: increases
- MBT after ASA ingestion ([1]; individual subject, ASA 30 mg/kg 15 min prior to MBT): 9.47 % dose/hour and 10.08 % dose/hour and 8.88 % dose/hour and 8.73 % dose/hour and 7.77 % dose/hour and 7.34 % dose/hour and 9.24 % dose/hour and 6.47 % dose/hour and 8.61 % dose/hour and 6.88 % dose/hour and 9.27 % dose/hour

SMILES: CC(C)CC(=O)C(=O)O [KICA, ketoisocaproic acid]
- reduction in ^14 CO2 production (hepatic mitochondria): 75%
- stability in solution (in words) [2]: instability in solution

SMILES: CCO [alcohol]
- effect on KICA decarboxylation (in words) (hepatic mitochondria): deceases KICA decarboxylation
- mean change of MBT from baseline with alcohol ([1]; alcohol, n=9, p<0.003): -59±17%
- effect of ingestion on MBT (in words) [1]: significantly decreases
- MBT after alcohol ingestion ([1]; individual subject, 60 cc vodka 15 min prior to MBT): 3.36 % dose/hour and 4.54 % dose/hour and 2.76 % dose/hour and 2.22 % dose/hour and 2.97 % dose/hour and 3.39 % dose/hour and 1.86 % dose/hour and 3.52 % dose/hour and 2.45 % dose/hour
- MBT after alcohol ingestion, group mean ([1]; n=9, 60 cc vodka 15 min prior to MBT): 3.01 % dose/hour and 3.01±0.81 % dose/hour

SMILES: Cc1c(N(C)C)c(=O)n(-c2ccccc2)n1C [aminopyrine]
- aminopyrine breath test / galactose elimination capacity (in words) (cytosolic function): normal

SMILES: O=C[C@H](O)[C@@H](O)[C@@H](O)[C@H](O)CO [galactose]
- aminopyrine breath test / galactose elimination capacity (in words) (cytosolic function): normal

SMILES: CSCC[C@H](N)C(=O)O [methionine, L-1-^13 C-methionine]
- correlation r of methionine clearance with CP score ([3]; cirrhotic patients): -0.80
- correlation r of methionine clearance with GEC ([3]; cirrhotic patients): 0.82
- plasma clearance of methionine (in words) ([3]; intravenous, liver disease / cirrhotic patients vs healthy controls): reduced
- fasting plasma methionine level (in words) ([3]; liver disease vs healthy controls): elevated
- MBT, Mean T1 and T2 (baseline), group mean ([1]; ASA group (n=11) before ASA): 6.17 % dose/hour
- MBT, Mean T1 and T2 (baseline), group mean ([1]; alcohol group (n=9) before alcohol): 7.37 % dose/hour
- mean difference between MBT test 1 and test 2 (95% CI) [4]: -0.073 (-0.475,0.330)
- MBT result for all patients ([5]; all liver patients): 2.85 % dose/hour
- MBT 1 ([5]; cirrhotic patients, individual): 5.01 % dose/hour and 6.30 % dose/hour and 2.47 % dose/hour and 7.18 % dose/hour and 5.66 % dose/hour and 3.20 % dose/hour and 3.55 % dose/hour and 1.67 % dose/hour and 4.36 % dose/hour and 2.63 % dose/hour and 2.10 % dose/hour and 0.99 % dose/hour and 2.02 % dose/hour and 1.31 % dose/hour and 1.34 % dose/hour and 1.87 % dose/hour and 1.94 % dose/hour and 0.46 % dose/hour and 1.80 % dose/hour and 0.54 % dose/hour and 1.11 % dose/hour
- MBT Mean ([5]; cirrhotic patients, individual, mean of MBT 1 and 2): 4.55 % dose/hour and 6.56 % dose/hour and 2.58 % dose/hour and 6.43 % dose/hour and 5.69 % dose/hour and 3.02 % dose/hour and 3.47 % dose/hour and 2.03 % dose/hour and 4.34 % dose/hour and 2.73 % dose/hour and 2.11 % dose/hour and 1.99 % dose/hour and 2.13 % dose/hour and 1.32 % dose/hour and 1.34 % dose/hour and 1.82 % dose/hour and 2.04 % dose/hour and 0.53 % dose/hour and 1.40 % dose/hour and 0.54 % dose/hour and 0.97 % dose/hour and 1.38 % dose/hour
- MBT 2 ([5]; cirrhotic patients, individual, repeat within 12 h): 4.09 % dose/hour and 6.81 % dose/hour and 2.69 % dose/hour and 5.68 % dose/hour and 5.71 % dose/hour and 2.84 % dose/hour and 3.39 % dose/hour and 2.39 % dose/hour and 4.31 % dose/hour and 2.83 % dose/hour and 2.11 % dose/hour and 2.98 % dose/hour and 2.24 % dose/hour and 1.33 % dose/hour and 1.77 % dose/hour and 2.14 % dose/hour and 0.59 % dose/hour and 0.99 % dose/hour and 0.82 % dose/hour and 1.44 % dose/hour
- MBT 1, group mean ([5]; cirrhotic patients, mean): 2.67 % dose/hour
- MBT 2, group mean ([5]; cirrhotic patients, mean): 2.86 % dose/hour
- MBT Mean, group mean ([5]; cirrhotic patients, mean of MBT 1 and 2): 2.76 % dose/hour
- MBT value (mean±SD), CP A ([5]; patients with CP score A): 5.16±1.61 % dose/hour
- MBT value (mean±SD), CP B ([5]; patients with CP score B): 2.81±0.94 % dose/hour
- MBT value (mean±SD), CP C ([5]; patients with CP score C): 1.45±0.55 % dose/hour

SMILES: O=C([O-])c1ccccc1O.[Na+] [sodium salicylate]
- effect on KICA decarboxylation (in words) (hepatic mitochondria): increase in KICA decarboxylation
